The conditions of data set [1]: Wängler et al. 2010; cited from earlier work.
Data set [2] deals with T1, human serum albumin (Homo sapiens, UniProt P02768).
T1 construct: purchased H13H-2433
Nature of the data set: HSA binding on Chiralpak HSA column. The class given is in vitro ADME. The note with it: for Log K HSA: reference substances for calibration of the HSA-column; for HSA Binding: Chiralpak HSA column (50 × 3 mm, 5 μm).
Method: The mobile phase (A: NH4OAc, 50 mM in water, pH 7 and B: isopropanol) was freshly prepared for each experiment and only used for one day. The column was kept at room temperature and each run was stopped after detection of the signal to reduce the acquisition time. All substances were dissolved in a 0.5 mg/ml concentration in 50% 2-propanol and 50% 50 mM pH 6.9 ammonium acetate buffer. […] All nine reference substances were injected consecutively to establish a non-linear regression with Origin Pro 2016G.

The target of data set [3] is T1, human serum albumin. The note with it: reference substances for calibration of the HSA-column; cited from earlier work.
A short description of data set [4]: Octanol-water partition coefficient (n-octanol/PBS pH 7.4). The class given is physicochemical. The following applies: for log P: octanol/PBS7.4, (n = 6). The procedure: Approximately 1 MBq of the labeled tracer was dissolved in 1 mL of a 1:1 mixture (by volumes) of phosphate buffered saline (PBS, pH 7.4) and n-octanol in an Eppendorf tube. After vigorous mixing of the suspension for 3 minutes at room temperature, the vial was centrifuged at 15000 g for 3 minutes (Biofuge 15, Heraus Sepatech, Osterode, Germany) and 100 μL aliquots of both layers were measured in a gamma counter. The experiment was repeated at least six times.
Determianation of the IogP values was carried out in phosphate buffered saline (PBS, pH 7.4) and n-octanol (=logPoct/PBS).

Data set [5] has as its target T2, PSMA (Homo sapiens, UniProt Q04609).
T2 construct: endogenous in cells; host or cells: LNCaP cells
The data set is described as follows: Determination of IC50: PSMA affinity, competitive binding on LNCaP cells against ([125I]I-BA)KuE. The procedure:
Data are expressed as mean±SD (n=3, in 3 different experiments).
After removal of the culture medium, the cells were treated once with 500 μL of HBSS (Hank's balanced salt solution, Biochrom, Berlin, Germany, with addition of 1% bovine serum albumin (BSA)) and left 15 min on ice for equilibration in 200 μL HBSS (1% BSA). […] Quantification of bound and free radioligand was accomplished in a γ-counter.

In data set [6] the test system is PSMA-positive LNCaP cells. The data set is described as follows: Internalization in LNCaP cells, normalized to ([125I]I-BA)KuE. The class given is cell-based. The note with it: for individual internalization rates / internalization rate Mean: LNCaP cells, 1 hour, 37° C.; for individual internalization rates: c=0.5 nM, single measurements. The procedure: Data is corrected for non-specific binding ([…]) and expressed as mean±SD (n=3).
Subsequent to the removal of the culture medium, the cells were washed once with 500 μL DMEM-F12 (5% BSA) and left to equilibrate for at least 15 min at 37° C. in 200 μL DMEM-F12 (5% BSA). Each well was treated with either 25 μL of either DMEM-F12 (5% BSA) or a 100 μM PMPA solution for blockade. Next, 25 μL of the ^68Ga/^18F-labeled PSMA inhibitor (5.0 nM) was added and the cells incubated at 37° C. for 60 min. The experiment was terminated by placing the 24-well plate on ice for 3 min and consecutive removal of the medium. Each well was rinsed with 250 μL HBSS and the fractions from these first two steps combined, representing the amount of free radioligand. Removal of surface bound activity was accomplished by incubation of the cells with 250 μL of ice-cold PMPA (10 μM in PBS) solution for 5 min and rinsed again with another 250 μL of ice-cold PBS. The internalized activity was determined by incubation of the cells in 250 μL 1 M NaOH and the combination with the fraction of a subsequent wash step with 250 μL 1.0 M NaOH. Each experiment (control and blockade) was performed in triplicate. Free, surface bound and internalized activity was quantified in a γ-counter. […] Data were corrected for non-specific internalization and normalized to the specific-internalization observed for the radioiodinated reference compound.

Data set [7] relates to LNCaP tumor-bearing SCID mice. Nature of the data set: Biodistribution at 1 h p.i. The note with it: for Biodistribution tumor: LNCaP tumor. Format: in vivo. The procedure: FIG. 10: Biodistribution (in % ID/g) of ^18E-labeled rhPSMA tracers at 1 h p.i in LNCaP tumor-bearing SCID mice. Data are expressed as mean±SD (n=4 for rhPSMA7.1, n=5 for 7.2, n=4 for 7.3, n=5 for 7.4 and n=3 for 7-rac).

Data set [8] concerns LNCaP tumor-bearing SCID mice. Nature of the data set: Biodistribution at 1 h p.i. with competition (co-injected PMPA). The note with it: co-injected with PMPA (8 mg/kg); for Biodistribution tumor: LNCaP tumor. Format: in vivo. As to the method: FIG. 11: Biodistribution [% ID/g] of ^18F-rhPSMAs co-injected with PMPA (8 mg/kg) at 1 h p.i in LNCaP tumor-bearing SCID mice. Data are expressed as mean±SD (n=3).

Where [9] appears, read: LNCaP cells, [125I]IB-KuE c=0.2 nM, 1 h, 4° C., HBSS+1% BSA, single measurements, read-out: individual IC50 measurements.
The mark [10] stands for this setting: LNCaP cells, [125I]IB-KuE c=0.2 nM, 1 h, 4° C., mean of individual measurements, read-out: IC50 Mean.

The values that follow come from patent US12357711B2, “PSMA binding dual mode radiotracer and therapeutic” (Technische Universität München, priority 2019, dated 2025).

Values joined by “and” are separate entries in the source; they are usually repeats but may differ in a detail not shown here. Equal entries are not always repeated. Where two headings read alike, the source gives them in different places.

As a reminder, the logP is the decadic logarithm of the partition coefficient of the neutral form, usually between octanol and water. In general, IC50 refers to the concentration that inhibits the measured activity by half. As usually defined, the log P is a log measure of how a compound divides between an organic and an aqueous phase.

T1 sequence (P02768 25-609): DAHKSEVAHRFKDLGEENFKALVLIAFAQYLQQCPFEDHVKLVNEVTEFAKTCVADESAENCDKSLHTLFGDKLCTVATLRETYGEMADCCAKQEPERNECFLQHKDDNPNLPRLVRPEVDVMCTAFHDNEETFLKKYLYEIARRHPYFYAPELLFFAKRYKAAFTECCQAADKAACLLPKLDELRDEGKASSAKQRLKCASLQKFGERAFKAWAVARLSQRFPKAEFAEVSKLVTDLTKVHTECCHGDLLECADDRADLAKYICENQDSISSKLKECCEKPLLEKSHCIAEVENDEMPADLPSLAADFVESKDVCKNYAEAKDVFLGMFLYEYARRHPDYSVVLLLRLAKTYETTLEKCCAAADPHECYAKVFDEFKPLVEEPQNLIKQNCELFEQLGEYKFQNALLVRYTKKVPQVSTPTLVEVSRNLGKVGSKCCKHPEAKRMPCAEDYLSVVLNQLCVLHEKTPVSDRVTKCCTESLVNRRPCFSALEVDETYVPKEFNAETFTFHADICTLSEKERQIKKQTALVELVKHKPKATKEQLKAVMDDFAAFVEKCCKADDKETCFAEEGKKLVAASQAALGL
T2 sequence (Q04609 whole entry): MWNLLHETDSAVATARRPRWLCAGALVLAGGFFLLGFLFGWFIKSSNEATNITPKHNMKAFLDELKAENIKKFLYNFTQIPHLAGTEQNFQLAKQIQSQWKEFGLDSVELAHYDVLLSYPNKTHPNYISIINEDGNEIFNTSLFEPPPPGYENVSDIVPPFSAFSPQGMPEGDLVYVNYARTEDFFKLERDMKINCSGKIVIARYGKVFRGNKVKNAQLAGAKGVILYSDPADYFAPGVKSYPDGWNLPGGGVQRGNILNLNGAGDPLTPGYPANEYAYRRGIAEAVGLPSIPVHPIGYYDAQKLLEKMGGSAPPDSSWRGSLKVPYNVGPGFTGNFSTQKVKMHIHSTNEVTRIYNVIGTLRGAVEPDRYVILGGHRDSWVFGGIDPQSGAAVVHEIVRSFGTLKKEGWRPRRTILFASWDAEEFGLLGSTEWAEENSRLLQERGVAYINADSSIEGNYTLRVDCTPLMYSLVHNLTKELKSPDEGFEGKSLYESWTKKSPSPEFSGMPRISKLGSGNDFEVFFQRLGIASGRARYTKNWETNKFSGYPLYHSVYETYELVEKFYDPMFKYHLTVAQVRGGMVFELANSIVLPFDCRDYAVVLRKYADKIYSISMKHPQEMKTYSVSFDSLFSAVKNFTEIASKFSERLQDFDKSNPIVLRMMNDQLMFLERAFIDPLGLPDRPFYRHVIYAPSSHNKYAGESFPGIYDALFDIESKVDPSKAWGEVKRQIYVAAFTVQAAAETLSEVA

“SIFA-Asn(AcNH-β-Glc)-PEG-Tyr^3-octreotate”: the “log P(ow)” value in data set [1] is listed as 0.96.
As for SIFA-Asn(AcNH-β-Glc)-Tyr^3-octreotate, in data set [1], the “log P(ow)” value is listed as 1.23.
For `Oc1ccccc1` [Phenol], in data set [2], the “Log K HSA” value is −0.59. For the same compound, the “Lit. HSA % (literature value of human serum albumin binding)” value (shortened to “Lit. HSA %”) in data set [3] is 20.69%.
Take `O=C(O)CC[C@H](NC(=O)N[C@@H](CCCCNC(=O)c1ccc(F)nc1)C(=O)O)C(=O)O` [DCFPyL, reference compound]: the logP in data set [4] (pH 7.4) is -3.4. For the same compound, in data set [2], the “HSA Binding” value is 14.3%.
Take “[^19F][^natGa]L-Dap-S-DOTAGA-rhPSMA7 [rhPSMA7.4]”: in data set [5] (setting [9]), the IC50 is 3.4 nM and 3.56 nM and 2.79 nM and 4.57 nM and 3.78 nM. In addition, the IC50 in data set [5] (setting [10]) is 3.62 nM. For the same compound, in data set [6], the individual internalization rates was 209.6 % of [^125I]IB-KuE and 202.6 % of [^125I]IB-KuE and 209.8 % of [^125I]IB-KuE; the “internalization rate Mean” value is 207.33±4.06 % of [^125I]IB-KuE and 207.33 % of [^125I]IB-KuE. Besides, in data set [2], the “HSA Binding” value is reported as 96.6%. In addition, in data set [7], the Biodistribution adrenals stood at 3.57 ± 2.38 % ID/g, the Biodistribution blood is 1.15 ± 0.30 % ID/g, the Biodistribution bone is recorded as 0.62 ± 0.30 % ID/g and the Biodistribution heart was 0.71 ± 0.26 % ID/g. In data set [7], this compound came in with a Biodistribution intestine of 0.37 ± 0.09 % ID/g, a Biodistribution kidneys of 153 ± 80.3 % ID/g, a Biodistribution liver of 0.69 ± 0.20 % ID/g and a Biodistribution lung of 1.59 ± 0.61 % ID/g. In data set [7], this compound gave a Biodistribution muscle of 0.31 ± 0.08 % ID/g, a Biodistribution pancreas of 0.50 ± 0.30 % ID/g, a Biodistribution spleen of 18.4 ± 9.77 % ID/g and a Biodistribution stomach of 0.25 ± 0.06 % ID/g. Further, the Biodistribution tumor in data set [7] is 18.9 ± 3.27 % ID/g. In data set [8], this compound gave a Biodistribution adrenals of 0.03 ± 0.04 % ID/g, a Biodistribution blood of 0.82 ± 0.17 % ID/g, a Biodistribution bone of 1.0 ± 0.8 % ID/g and a Biodistribution heart of 0.37 ± 0.05 % ID/g. Besides, in data set [8], the Biodistribution intestine is recorded as 0.36 ± 0.08 % ID/g, the Biodistribution kidneys worked out at 7.2 ± 2.4 % ID/g, the Biodistribution liver is 0.48 ± 0.14 % ID/g and the Biodistribution lung is listed as 0.74 ± 0.14 % ID/g. In data set [8], the Biodistribution muscle worked out at 0.20 ± 0.05 % ID/g, the Biodistribution pancreas worked out at 0.18 ± 0.09 % ID/g, the Biodistribution spleen is given as 0.28 ± 0.15 % ID/g and the Biodistribution stomach was 0.20 ± 0.07 % ID/g. Further, the Biodistribution tumor in data set [8] was found to be 0.99 ± 0.19 % ID/g.
`CC(C)(C)[Si](F)(c1ccc(C(=O)NC[C@H](NC(=O)CC[C@H](C(=O)O)N2CCN(CC(=O)[O-])CCN(CC(=O)[O-])CCN(CC(=O)[O-])CC2)C(=O)N[C@H](CCCCNC(=O)CCC(=O)NCCC[C@@H](NC(=O)CC[C@H](NC(=O)N[C@@H](CCC(=O)O)C(=O)O)C(=O)O)C(=O)O)C(=O)O)cc1)C(C)(C)C.[Ga+3]` [rhPSMA7.2, [^19F][^natGa]L-Dap-R-DOTAGA-rhPSMA7]: in data set [5] (setting [9]), the IC50 was 2.64 nM and 2.76 nM and 3.94 nM and 5.8 nM and 4.31 nM and 4.32 nM and 3.17 nM and 2.97 nM and 3.36 nM. Besides, the IC50 in data set [5] (setting [10]) was determined as 3.7 nM. Further, in data set [6], the individual internalization rates is 192.3 % of [^125I]IB-KuE and 188.7 % of [^125I]IB-KuE and 182.7 % of [^125I]IB-KuE and 169.5 % of [^125I]IB-KuE and 205.3 % of [^125I]IB-KuE and 212.6 % of [^125I]IB-KuE; the “internalization rate Mean” value is 191.83 % of [^125I]IB-KuE. The “log P” value in data set [4] was −3.13 ± 0.22. For the same compound, the “log P Mean” value in data set [4] (octanol/PBS7.4, mean of individual measurements) was −3.13. Also, the “individual log P measurements” value in data set [4] (octanol/PBS7.4, single measurements) was −3.03 and −2.96 and −2.94 and −2.89 and −3.02 and −3.06 and −2.99 and −3.14 and −3.40 and −3.50 and −3.45 and −3.53 and −3.48 and −3.00 and −3.01. Moreover, the “HSA Binding” value in data set [2] amounted to 97.8%. In data set [7], this compound yielded a Biodistribution adrenals of 1.3 ± 0.8 % ID/g, a Biodistribution blood of 0.56 ± 0.20 % ID/g, a Biodistribution bone of 0.31 ± 0.24 % ID/g and a Biodistribution heart of 0.32 ± 0.13 % ID/g. Further, in data set [7], the Biodistribution intestine is reported as 0.18 ± 0.07 % ID/g, the Biodistribution kidneys was found to be 87.6 ± 28.8 % ID/g, the Biodistribution liver was 0.35 ± 0.08 % ID/g and the Biodistribution lung is reported as 0.89 ± 0.38 % ID/g. In data set [7], this compound had a Biodistribution muscle of 0.13 ± 0.07 % ID/g, a Biodistribution pancreas of 0.21 ± 0.08 % ID/g, a Biodistribution spleen of 10.1 ± 6.3 % ID/g and a Biodistribution stomach of 0.19 ± 0.08 % ID/g. In addition, the Biodistribution tumor in data set [7] turned out to be 6.5 ± 2.3 % ID/g. Moreover, in data set [8], the Biodistribution adrenals was found to be 0.07 ± 0.10 % ID/g, the Biodistribution blood was 1.1 ± 0.31 % ID/g, the Biodistribution bone was 0.57 ± 0.39 % ID/g and the Biodistribution heart amounted to 0.47 ± 0.09 % ID/g. Further, in data set [8], the Biodistribution intestine came to 0.33 ± 0.10 % ID/g, the Biodistribution kidneys amounted to 10.9 ± 1.0 % ID/g, the Biodistribution liver is on record as 0.46 ± 0.07 % ID/g and the Biodistribution lung is on record as 1.1 ± 0.32 % ID/g. In data set [8], this compound had a Biodistribution muscle of 0.09 ± 0.03 % ID/g, a Biodistribution pancreas of 0.12 ± 0.05 % ID/g, a Biodistribution spleen of 0.26 ± 0.07 % ID/g and a Biodistribution stomach of 0.21 ± 0.06 % ID/g. For the same compound, the Biodistribution tumor in data set [8] amounted to 1.0 ± 0.13 % ID/g.
For the compound `Nc1ccccc1` [Aniline], the “Log K HSA” value in data set [2] was −0.79. The “Lit. HSA %” value in data set [3] was 14.06%.
Take `O=C(O)c1ccccc1` [Benzoic Acid]: the “Lit. HSA %” value in data set [3] is 34.27%.
`COc1ccc(Cl)cc1C(=O)NCCc1ccc(S(=O)(=O)NC(=O)NC2CCCCC2)cc1` [Glibenclamide]: in data set [2], the “Log K HSA” value is on record as 1.69. The “Lit. HSA %” value in data set [3] was 99.00%.
Take `CCCN(CCC)S(=O)(=O)c1ccc(C(=O)O)cc1` [Probenecid]: the “Lit. HSA %” value in data set [3] is given as 95.00%.
For the compound PSMA-1007 [reference compound], the IC50 in data set [5] (identical binding assay, carried out in our lab (Robu et al. 2018), read-out: IC50 of other selected PSMA inhibitors) was determined as 4.2 ± 0.5 nM. Moreover, in data set [6] (identical assay, carried out in our lab (Robu et al. 2018)), the “internalization of other selected PSMA inhibitors” value was 118 ± 4 % of [^125I]IB-KuE. For the same compound, the “log P” value in data set [4] is given as −1.6. Besides, in data set [2], the “HSA Binding” value is on record as 97.8%.
